For data set [1], the system named is pre-osteoclast Raw 264.7 cells. The data set can be described thus: Osteoclastogenesis coculture assay (TRAP staining). To be noted: 15-fold increase by JAG1 OE relative to controls; 1 μM MRK-003; FIG. 15A. It counts as cell-based, mouse. On the procedure: After seeding 5×10^4 control or JAG1 OE tumor cells/well into 12-well plates, murine pre-osteoclast Raw 264.7 (2×10^5 cells/well) or MOCP5 (5×10^5 cells/well) cells in media containing 30 ng/ml RANKL and DMSO or 1 μM MRK-003 were added the next day. Media were changed every 2 days. TRAP staining was performed on day 6 using a leukocyte acid phosphatase kit (Sigma). TRAP^+-multinucleated cells were scored as mature osteoclasts. The number of nuclei per osteoclast was quantified using TRAP-stained images. Mouse specific qRT-PCR primers were used to selectively quantify Raw264.7 osteoclast gene expression levels after 6 days of coculture (see Table 1 below).
For primary osteoclast coculture assays, bone marrow cells were flushed out from femora and tibiae of 4- to 6-week-old wild-type FVB mice and plated in basal culture medium overnight. The next day, nonadherent cells were added at 1×10^6/well to 12-well plates that were previously seeded with either control or JAG1 OE tumor cells supplemented with 50 ng/ml RANKL and 50 ng/ml M-CSF. Medium was changed every 3 days. TRAP staining and scoring were performed on days 10-12.

In a further data set the test system is JAGGED1. The data set can be described thus: JAGGED1 mRNA and protein after TGFβ treatment of breast cancer cells in vitro. It counts as cell-based, human. Conditions: several breast cancer cell lines; FIG. 5A. Here is the method: SDS lysis buffer (0.05 mM Tris-HCl, 50 mM BME, 2% SDS, 0.1% Bromophenol blue, 10% glycerol) was used to collect protein from cultured cells. Heat denatured protein was then equally loaded, separated on an SDS-page gel, transferred onto a pure nitrocellulose membrane (BioRad), and blocked with either 5% milk or 5% BSA. Primary antibodies for immunoblotting included: goat anti-JAGGED1 (1:1000 dilution, sc-6011, Santa Cruz), rabbit anti-phosho-SMAD2 (1:1000 dilution, Ser465/467, Cell Signaling), and mouse anti-β-actin (1:4000 dilution, Abcam) for loading control. Membranes were incubated with horseradish peroxidase (HRP)-conjugated anti-mouse secondary antibody (1:2000 dilution, GE Healthcare) or anti-rabbit secondary antibody (1:2000 dilution, GE Healthcare) for 1 h and chemiluminescence signals were detected by ECL substrate (GE Healthcare).
(§1) For in vitro experiments, GSI-IX (Calbiochem) and TGFβ Receptor 1 (EMD Biosciences 616451) were dissolved in DMSO. […] RNA and protein were collected and analyzed for JAGGED1 expression as described above. […]
RNA from in vitro cultured cells or flow cytometry-separated cells was collected in RLT lysis buffer and extracted with RNeasy mini kit (Qiagen). […] Quantitative RT-PCR was performed using Power Syber Green PCR Master Mix (Applied Biosystems) with the ABI Prism 7900HT thermocycler (Applied Biosystems) according to the manufacturer's protocol. […]

Data set [2] concerns SCP28 tumor cells cocultured with MC3T3-E1 osteoblasts. The data set can be described thus: Osteoblast coculture tumor cell quantification by luciferase assay. It counts as cell-based, human. To be noted: cocultured with MC3T3-E1; hIL-6 10 or 100 ng/ml; FIG. 14B. Here is the method:
MC3T3-E1 cells were seeded at 2×10^5 cells/well in 12-well plates. After confluence was achieved, luciferase/GFP-labeled (GFP+) control and JAG1 OE cells were added at 1×10^4 cells/well in triplicate and treated with DMSO or 1 μM MRK-003. Media supplemented with appropriate drugs were changed every 2 days. After 6 days the coculture was subjected to a luciferase assay to selectively quantify the number of tumor cells. These values were normalized against luciferase quantification of 12-well plates seeded with tumor cells alone.
For transfection experiments, MC3T3-E1 osteoblasts were seeded at 2×10^5 cells/well in 12-well plates and grown to 95% confluence. […] Following 6 days, the coculture was lysed and subjected to a luciferase assay to selectively quantify the number of tumor cells. For gene expression analysis, RNA from cocultures was collected in RLT lysis buffer, extracted with RNeasy mini kit (Qiagen), and subjected to quantitative RT-PCR.
as §1

The subject of data set [3] is SCP2 and 1833 bone metastasis. In words: Bone metastasis xenograft with JAG1 knockdown SCP2 and 1833 cells. It counts as in vivo, mouse. Here is the method:
(§2) For bone metastsis studies, 10^5 tumor cells were injected into the left cardiac ventricle of anesthetized female athymic Ncr-nu/nu or BALB/c mice. Development of metastases was monitored by BLI. Bioluminescence images were acquired with a Xenogen IVIS 200 Imaging System. Analysis was performed with Living Image software by measuring photon flux in the hindlimbs of mice. Data were normalized to the signal on day 7. Bone metastasis-free survival curves represent the time point at which each mouse developed bone metastasis by threshold BLI signals in the hindlimbs. For the orthotopic xenograft model, mammary fat pad injections and primary tumor size measurements were performed following the procedure described previously (Minn et al., 2005, which is incorporated herein by reference as if fully set forth).
After 48 hours viruses were collected, filtered and used to infect target cells in the presence of 5 μg/ml polybrene. The infected cells were selected with 1 μg/ml puromycin. […]
Hindlimb bones were excised from mice at the end point of each experiment, immediately after the last BLI time point. […] For quantitative analysis of lesion area, a 5× objective was used to focus on the tumor region of interest and images were acquired using the AxioCamICc3 camera set to an exposure of 100 ms. Lesions that were larger than the field of view were quantified by acquiring multiple images to encompass the entire lesion. The “spline” function of the AxioVision software was used to outline the region of interest and subsequently quantify the lesion area. Osteoclast number was assessed as multinucleated TRAP^+ cells along the tumor-bone interface and reported as number/mm of interface (Yin et al., 2003, which is incorporated herein by reference as if fully set forth). […]

The subject of data set [4] is SCP2 and 1833 tumor cells. The data set can be described thus: Proliferation of JAG1 KD tumor cells in culture or as mammary tumors. Set-up: species or system human. On the procedure: as §2
After 48 hours viruses were collected, filtered and used to infect target cells in the presence of 5 μg/ml polybrene. The infected cells were selected with 1 μg/ml puromycin. For stable overexpression in the SCP28 human breast cancer cell line, human JAGGED1 cDNA was PCR amplified using the primer pair: 5′-[…]-3′ (Sense) [SEQ ID NO: 2] and 5′-[…]-3′ (Antisense) [SEQ ID NO: 3] and cloned into the retroviral expression vector pMSCVpuro using XhoI and EcoRI restriction sites (underlined=restriction sites, bold=human JAG1-specific sequences). […]

Data on five molecules can be found in patent US20150329918A1, “JAGGED1 AS A MARKER AND THERAPEUTIC TARGET FOR BREAST CANCER BONE METASTASIS” (The Trustees of Princeton University, priority 2011, published 2015).

With “rJAG1: Recombinant rat JAGGED1/Fc chimera (R&D systems)”, in data set [1], the “TRAP+ osteoclasts in JAG1 OE cocultures” value is on record as “confirmed”.
“TGFβ: Recombinant human TGFβ1 (R&D systems)”: the “Jagged1 expression upon TGFβ stimulation” value in the data set on JAGGED1 is recorded as “potently upregulated”.
Turning to `C[C@H](NC(=O)Cc1cc(F)cc(F)c1)C(=O)N[C@H](C(=O)OC(C)(C)C)c1ccccc1` [GSI IX], in data set [1], the “TRAP+ osteoclasts in JAG1 OE cocultures” value is given as “confirmed”.
Consider “rIL-6: Recombinant human IL-6 (R&D systems)”, for which the “proliferative ability of control tumor cells” value in data set [2] is given as “significantly enhanced”.

B1: JAG1 KD: shRNA targeting CGTACAAGTAGTTCTGTAT of JAG1 (SEQ ID NO: 1; same as sense strand SEQ ID NO: 78, shRNA SEQ ID NO: 80) (nucleic acid)
chain: GATCTCCCGTACAAGTAGTTCTGTATTTCAAGAGAATACAGAACTACTTGTACGTTTTTGGAAAAGCTTTTCCAAAAACGTACAAGTAGTTCTGTATTCTCTTGAAATACAGAACTACTTGTACGGGA
In the case of B1, in data set [3] (SCP2 and 1833 with JAG1 shRNA), the “onset of bone metastasis” value is “delayed” and the survival of mice result was “significantly extended”. Also, the “decrease in the number of TRAP+ osteoclasts along the bone tumor interface” value in data set [3] (histological analysis) stood at 2 fold. In data set [4], the “ability of tumor cells to proliferate in culture or as mammary tumors in mice” value is “did not alter”.
